Test results from PubChem BioAssay AID248 (DTP/NCI, 2004).
Values joined by “and” are separate entries in the source; they are usually repeats but may differ in a detail not shown here. Identical values can stand only once. Toxic doses and inconclusive results are not listed. Cut-off read from the data, not from the text of the source: active = T/C of 150% or more; inactive = T/C below 125%.

Test system: L1210 leukemia ip in BDF1 mice, survival T/C
Test: NCI In Vivo Anticancer Drug Screen. Data for tumor model L1210 Leukemia (intraperitoneal) in B6D2F1 (BDF1) mice
Conditions: endpoint: mean survival time, higher = longer survival
Method in brief: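 In this screen, tumor-bearing mice given compound are compared to those given vehicle, and their survival values are reported as a treated-to-control quotient.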

[1] = dose: 100.0 mg/kg/injection, schedule: Q04DX002 (ip), vehicle: Klucel (hydroxypropylcellulose) (HPC)
[2] = dose: 200.0 mg/kg/injection, schedule: Q04DX002 (ip), vehicle: Klucel (hydroxypropylcellulose) (HPC)
[3] = dose: 400.0 mg/kg/injection, schedule: Q04DX002 (ip), vehicle: Klucel (hydroxypropylcellulose) (HPC)
[4] = dose: 100.0 mg/kg/injection, schedule: Q04DX002 (ip), vehicle: saline with Tween-80
[5] = dose: 200.0 mg/kg/injection, schedule: Q04DX002 (ip), vehicle: saline with Tween-80
[6] = dose: 100.0 mg/kg/injection, schedule: Q01DX001 (ip), vehicle: carboxymethylcellulose (CMC)
[7] = dose: 200.0 mg/kg/injection, schedule: Q01DX001 (ip), vehicle: carboxymethylcellulose (CMC)
[8] = dose: 400.0 mg/kg/injection, schedule: Q01DX001 (ip), vehicle: carboxymethylcellulose (CMC)
[9] = dose: 100.0 mg/kg/injection, schedule: Q04DX003 (ip), vehicle: Klucel (hydroxypropylcellulose) (HPC)
[10] = dose: 100.0 mg/kg/injection, schedule: Q01DX009 (ip), vehicle: saline with Tween-80
[11] = dose: 200.0 mg/kg/injection, schedule: Q01DX009 (ip), vehicle: saline with Tween-80
[12] = dose: 50.0 mg/kg/injection, schedule: Q01DX001 (ip), vehicle: carboxymethylcellulose (CMC)

Measured: T/C

COc1ccc(/C=N\NC(=O)c2ccncc2)cc1OC
inactive: dose: 50.0 mg/kg/injection, schedule: Q04DX002 (ip), vehicle: Klucel (hydroxypropylcellulose) (HPC) 101 % of control | [1] 106 % of control | [2] 109 % of control | [3] 103 % of control

CCN(CC)CCN(Cc1ccccc1)C(=O)C(O)(c1ccccc1)c1ccccc1
inactive: dose: 100.0 mg/kg/injection, schedule: Q01DX001 (ip), vehicle: saline with Tween-80 105 % of control | dose: 200.0 mg/kg/injection, schedule: Q01DX001 (ip), vehicle: saline with Tween-80 108 % of control

O=C(O)c1cccc2c1ccc1ccccc12
inactive: dose: 75.0 mg/kg/injection, schedule: Q04DX003 (ip), vehicle: saline 104 % of control | dose: 150.0 mg/kg/injection, schedule: Q04DX003 (ip), vehicle: saline 102 % of control | dose: 300.0 mg/kg/injection, schedule: Q04DX003 (ip), vehicle: saline 100 % of control

C=C(NC(=O)CNC(=O)CN)C(=O)O
inactive: [4] 105 % of control | [5] 102 % of control | dose: 400.0 mg/kg/injection, schedule: Q04DX002 (ip), vehicle: saline with Tween-80 102 % of control

C/C(=N/O)c1ccc2c(c1)Cc1ccccc1-2
inactive: [6] 105 % of control | [7] 100 % of control | [8] 98 % of control

CN(C)CCN=Cc1[nH]c(=S)[nH]c(=O)c1Cc1ccc(Cl)cc1
inactive: [9] 101 % of control | dose: 200.0 mg/kg/injection, schedule: Q04DX003 (ip), vehicle: Klucel (hydroxypropylcellulose) (HPC) 94 % of control | dose: 400.0 mg/kg/injection, schedule: Q04DX003 (ip), vehicle: Klucel (hydroxypropylcellulose) (HPC) 95 % of control

[Cl][Pd][Cl].[NH-]C(c1ccccc1)C([NH-])c1ccccc1 (stereo not given)
inactive: [1] 93 % of control and 97 % of control | [2] 90 % of control and 118 % of control | [3] 88 % of control and 97 % of control

CCc1ccccc1NC(=O)Nc1cc(C)on1
inactive: dose: 100.0 mg/kg/injection, schedule: Q01DX009 (ip), vehicle: Klucel (hydroxypropylcellulose) (HPC) 103 % of control | dose: 200.0 mg/kg/injection, schedule: Q01DX009 (ip), vehicle: Klucel (hydroxypropylcellulose) (HPC) 110 % of control | dose: 400.0 mg/kg/injection, schedule: Q01DX009 (ip), vehicle: Klucel (hydroxypropylcellulose) (HPC) 107 % of control

COc1ccc(CC(N)C(=O)OC(C)C)cc1N(CCCl)CCCl (stereo not given)
inactive: dose: 1.5 mg/kg/injection, schedule: Q01DX001 (ip), vehicle: saline 108 % of control | dose: 3.0 mg/kg/injection, schedule: Q01DX001 (ip), vehicle: saline 113 % of control | dose: 6.0 mg/kg/injection, schedule: Q01DX001 (ip), vehicle: saline 97 % of control

Cc1ccc([N+](=O)[O-])cc1NC(=O)SCCOC(=O)COc1ccc(Cl)cc1Cl
inactive: [10] 94 % of control | dose: 100.0 mg/kg/injection, schedule: Q04DX003 (ip), vehicle: saline with Tween-80 93 % of control | [11] 94 % of control | dose: 200.0 mg/kg/injection, schedule: Q04DX003 (ip), vehicle: saline with Tween-80 98 % of control | dose: 400.0 mg/kg/injection, schedule: Q01DX009 (ip), vehicle: saline with Tween-80 105 % of control | dose: 400.0 mg/kg/injection, schedule: Q04DX003 (ip), vehicle: saline with Tween-80 89 % of control

CCCCN(CCCC)CCP(=O)(OCC)OCC
inactive: [4] 97 % of control | [5] 105 % of control

CCOC(=O)C(=O)c1cn(C)c2ccccc12
inactive: [12] 109 % of control | [6] 106 % of control | [7] 106 % of control | [8] 101 % of control

CC1OC(C(Cl)(Cl)Cl)NC1=O (stereo not given)
inactive: dose: 100.0 mg/kg/injection, schedule: Q04DX002 (ip), vehicle: saline 89 % of control | dose: 200.0 mg/kg/injection, schedule: Q04DX002 (ip), vehicle: saline 99 % of control | dose: 400.0 mg/kg/injection, schedule: Q04DX002 (ip), vehicle: saline 89 % of control

O=S(=O)(/C=C/c1ccccc1)N1CCOCC1
inactive: dose: 100.0 mg/kg/injection, schedule: Q01DX001 (ip), vehicle: acetone 111 % of control | dose: 100.0 mg/kg/injection, schedule: Q01DX009 (ip), vehicle: acetone 90 % of control | dose: 100.0 mg/kg/injection, schedule: Q04DX003 (ip), vehicle: acetone 100 % of control | dose: 200.0 mg/kg/injection, schedule: Q01DX001 (ip), vehicle: acetone 102 % of control | dose: 200.0 mg/kg/injection, schedule: Q01DX009 (ip), vehicle: acetone 93 % of control | dose: 200.0 mg/kg/injection, schedule: Q04DX003 (ip), vehicle: acetone 105 % of control | dose: 400.0 mg/kg/injection, schedule: Q01DX001 (ip), vehicle: acetone 101 % of control | dose: 400.0 mg/kg/injection, schedule: Q01DX009 (ip), vehicle: acetone 93 % of control | dose: 400.0 mg/kg/injection, schedule: Q04DX003 (ip), vehicle: acetone 97 % of control

CSc1cc2c(cc1NC(C)=O)C(=O)c1ccccc1-2
inactive: [6] 90 % of control | [7] 106 % of control | [8] 109 % of control

O=C(O)C1C2CC3CC(C2)CC1C3 (stereo not given)
inactive: [1] 105 % of control | [2] 94 % of control and 110 % of control | [3] 113 % of control | dose: 600.0 mg/kg/injection, schedule: Q04DX002 (ip), vehicle: Klucel (hydroxypropylcellulose) (HPC) 94 % of control

C(=C1\CCc2cc3ccccc3nc21)/c1ccccc1
inactive: dose: 50.0 mg/kg/injection, schedule: Q01DX009 (ip), vehicle: saline with Tween-80 98 % of control | [10] 95 % of control | [11] 88 % of control

C=CCc1cc(CNCC(C)O)c(O)c(OC)c1 (stereo not given)
inactive: dose: 50.0 mg/kg/injection, schedule: Q04DX003 (ip), vehicle: Klucel (hydroxypropylcellulose) (HPC) 95 % of control | [9] 93 % of control

CCN(CC)CCSC(=O)c1ccccc1
inactive: dose: 50.0 mg/kg/injection, schedule: Q01DX009 (ip), vehicle: saline 94 % of control | dose: 100.0 mg/kg/injection, schedule: Q01DX009 (ip), vehicle: saline 100 % of control | dose: 200.0 mg/kg/injection, schedule: Q01DX009 (ip), vehicle: saline 100 % of control

Fc1cc(N(CCCl)CCCl)ccc1CN1CCCN(Cc2ccc(N(CCCl)CCCl)cc2F)C1c1ccc(N(CCCl)CCCl)cc1F
inactive: [12] 100 % of control | [6] 96 % of control | [7] 102 % of control | [8] 94 % of control
